In patent US10899699B2, “Vinylogous phenethylamines as neurotransmitter releasers” (RESEARCH TRIANGLE INSTITUTE, priority 2016, dated 2021):
Counter-ions that a name gives are not always drawn. Like-named read-outs stand apart in the source and are kept apart here.

Experiments:
[1] = biological target: T1, Dopamine Transporter (DAT) (Rattus norvegicus, UniProt P23977); assay: DAT release assay, rat brain synaptosomes; type: biochemical; settings: for EC50: release of [3H]MPP+ from rat striatum synaptosomes, mean±SD (n=3)
T1 construct: Synaptosomes were prepared from rat striatum for the DAT assays; from tissue; host or cells: rat striatum synaptosomes
Method: (§1) BAT activity was measured using synaptosomes prepared from rat brain homogenates according to the protocol developed by Rothman and co-workers (Rothman, et al., Eur. J. Pharmacol. 2002, 447(1), 51). Compounds were first screened in uptake inhibition and release assays to determine the exact mode of drug action. […] Substrate reversal experiments were conducted to validate substrate activity. The analogs were also tested for agonist activity at the serotonin-2 receptor subtypes (5-HT2A, 5-HT2B, 5-HT2C) using in vitro calcium mobilization assays in transfected HEK293 cells as previously described. These receptors are associated with the pharmacology of abused drugs, as 5-HT2A agonists are thought to be hallucinogenic while […] are associated with valvular heart disease and pulmonary hypertension; activity at these receptors would be considered off-target liabilities. On the other hand, agonists at 5-HT2C may be beneficial as potential pharmacotherapies for drug abuse and appetite suppression.
(§2) All animal studies were conducted in facilities fully accredited by the Association for the Assessment and Accreditation of Laboratory Animal Care (AAALAC) and experiments were performed in accordance with the Institutional Care and Use Committee (IACUC) of the National Institute on Drug Abuse Intramural Research Program (NIDA IRP). Rats were euthanized by CO2 narcosis, and brains were processed to yield synaptosomes as previously described (Rothman, R B, et al., Eur. J. Pharmacol. 2002, 447(1), 51.). Synaptosomes were prepared from rat striatum for the DAT assays, whereas synaptosomes were prepared from whole brain minus striatum and cerebellum for the NET and SERT assays.
(§3) For release assays, 9 nM [^3H]1-methyl-4-phenylpyridinium ([^3H]MPP+) was used as the radiolabeled substrate for DAT and NET, while 5 nM [^3H]5-HT was used as a substrate for SERT. All buffers used in the release assay methods contained 1 μM reserpine to block vesicular uptake of substrates. The selectivity of release assays was optimized for a single transporter by including unlabeled blockers to prevent the uptake of [^3H]MPP+ or [^3H]5-HT by competing transporters. Synaptosomes were preloaded with radiolabeled substrate in Krebs-phosphate buffer for 1 h (steady state). Release assays were initiated by adding 850 μL of preloaded synaptosomes to 150 μL of test drug. Release was terminated by vacuum filtration and retained radioactivity was quantified as described for uptake inhibition. Concentration-response curves were generated to yield EC50 values.
(§4) Substrate reversal experiments were conducted to validate substrate activity. The releasing ability of test compounds was tested at an EC80 concentration in the absence and presence of an uptake inhibitor (250 nM […] for DAT, 166 nM desipramine for NET, 100 nM fluoxetine for SERT).

[2] = biological target: T2, Serotonin Transporter (SERT) (Rattus norvegicus, UniProt P31652); assay: SERT release assay, rat brain synaptosomes; type: biochemical; settings: for EC50: release of [3H]5-HT from rat brain synaptosomes, mean±SD (n=3)
T2 construct: synaptosomes were prepared from whole brain minus striatum and cerebellum for the NET and SERT assays; from tissue; host or cells: rat whole brain minus striatum and cerebellum, synaptosomes
Method: as §1, §2, §3, §4

[3] = biological target: Norepinephrine Transporter (NET) (Rattus norvegicus, UniProt Q9WTR4); type: biochemical; settings: read-out: EC50, (nM ± SD) NET; release of [3H]MPP+ from rat brain synaptosomes; mean±SD (n=3)
human 5-HT2A receptor = biological target: T3, human 5-HT2A receptor (Homo sapiens, UniProt P28223); assay: 5-HT2A calcium mobilization assay in HEK293 cells (agonist activity); type: cell-based; settings: for Emax: efficacy
T3 construct: expressed in transfected cells
Method: (§5) BAT activity was measured using synaptosomes prepared from rat brain homogenates according to the protocol developed by Rothman and co-workers (Rothman, et al., Eur. J. Pharmacol. 2002, 447(1), 51). Compounds were first screened in uptake inhibition and release assays to determine the exact mode of drug action. Compounds active in both assays are releasers while compounds active only in the uptake inhibition assay are uptake inhibitors. Active compounds were then fully characterized by running 8-point concentration response curves in the assay corresponding to their mechanism of action. Substrate reversal experiments were conducted to validate substrate activity. The analogs were also tested for agonist activity at the serotonin-2 receptor subtypes (5-HT2A, 5-HT2B, 5-HT2C) using in vitro calcium mobilization assays in transfected HEK293 cells as previously described. These receptors are associated with the pharmacology of abused drugs, as 5-HT2A agonists are thought to be hallucinogenic while […] are associated with valvular heart disease and pulmonary hypertension; activity at these receptors would be considered off-target liabilities. On the other hand, agonists at 5-HT2C may be beneficial as potential pharmacotherapies for drug abuse and appetite suppression.
(§6) HEK293 cells stably expressing the human 5-HT2A receptor were used. The day before the assay, cells were plated into 96-well black-walled assay plates at 40,000 cells/well in DMEM-HG supplemented with 10% fetal bovine serum, 100 units of penicillin and streptomycin, and 15 mM HEPES. The cells were incubated overnight at 37° C., 5% CO2. Prior to the assay, Calcium 5 dye (Molecular Devices) was reconstituted according to the manufacturer instructions. The reconstituted dye was diluted 1:40 in pre-warmed (37° C.) assay buffer (1×HBSS, 20 mM HEPES, 2.5 mM probenecid, pH 7.4 at 37° C.). Growth medium was removed and the cells were gently washed with 100 μL of pre-warmed (37° C.) assay buffer. The cells were incubated for 45 minutes at 37° C., 5% CO2 in 200 μL of the diluted Calcium 5 dye. Serial dilutions of the test compounds were prepared in 1% DMSO/assay buffer, aliquoted into 96-well polypropylene plates, and warmed to 37° C. After the dye-loading incubation period, the cells were pre-treated with 25 μL of 9% DMSO/assay buffer and incubated for 15 min at 37° C. After the pre-treatment incubation period, the plate was read with a FlexStation® II (Molecular Devices). Calcium-mediated changes in fluorescence were monitored every 1.52 seconds over a 60 second time period, with the FlexStation® II adding 25 μL of test compound dilutions at the 19 second time point (excitation at 485 nm, detection at 525 nm). Peak kinetic reduction (SoftMax, Molecular Devices) relative fluorescent units (RFU) were plotted against compound concentration. Data were fit to the appropriate three-parameter logistic curve to generate EC50 values (GraphPad Prism 6.0, GraphPad Software, Inc., San Diego, Calif.). 5-HT2B and 5-HT2C calcium mobilization assays were run in the same manner with stable 5-HT2B and 5-HT2C HEK293 cells except that 35,000 cells/well were used instead of 40,000 cells/well.

5-HT2B = biological target: T4, 5-HT2B (Homo sapiens, UniProt P41595); assay: 5-HT2B calcium mobilization assay in HEK293 cells (agonist activity); type: cell-based; settings: calcium mobilization, agonist, HEK293; for EC50: read-out: 5-HT2B EC50, (nM ± SEM)
T4 construct: expressed in transfected cells
Method: as §5, §6

5-HT2C = biological target: T5, 5-HT2C (Homo sapiens, UniProt P28335); assay: 5-HT2C calcium mobilization assay in HEK293 cells (agonist activity); type: cell-based; settings: HEK293; for EC50: read-out: 5-HT2C EC50, (nM ± SEM)
T5 construct: expressed in transfected cells
T5 sequence (P28335 33-458): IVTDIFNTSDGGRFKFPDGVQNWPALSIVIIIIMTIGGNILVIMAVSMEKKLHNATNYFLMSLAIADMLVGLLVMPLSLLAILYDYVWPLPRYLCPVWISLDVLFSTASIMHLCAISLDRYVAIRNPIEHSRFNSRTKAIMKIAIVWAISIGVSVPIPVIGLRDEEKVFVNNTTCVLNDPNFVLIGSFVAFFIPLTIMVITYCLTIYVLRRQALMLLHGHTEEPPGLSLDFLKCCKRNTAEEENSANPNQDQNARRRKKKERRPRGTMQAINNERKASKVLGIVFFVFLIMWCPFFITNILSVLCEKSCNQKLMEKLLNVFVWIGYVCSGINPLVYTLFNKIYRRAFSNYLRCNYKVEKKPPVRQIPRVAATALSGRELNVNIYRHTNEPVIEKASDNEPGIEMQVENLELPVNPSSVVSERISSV
Method: as §5, §6

[4] = calcium mobilization, agonist, HEK293, read-out: 5-HT2A EC50, (nM ± SEM)

T4 sequence (P41595 whole entry): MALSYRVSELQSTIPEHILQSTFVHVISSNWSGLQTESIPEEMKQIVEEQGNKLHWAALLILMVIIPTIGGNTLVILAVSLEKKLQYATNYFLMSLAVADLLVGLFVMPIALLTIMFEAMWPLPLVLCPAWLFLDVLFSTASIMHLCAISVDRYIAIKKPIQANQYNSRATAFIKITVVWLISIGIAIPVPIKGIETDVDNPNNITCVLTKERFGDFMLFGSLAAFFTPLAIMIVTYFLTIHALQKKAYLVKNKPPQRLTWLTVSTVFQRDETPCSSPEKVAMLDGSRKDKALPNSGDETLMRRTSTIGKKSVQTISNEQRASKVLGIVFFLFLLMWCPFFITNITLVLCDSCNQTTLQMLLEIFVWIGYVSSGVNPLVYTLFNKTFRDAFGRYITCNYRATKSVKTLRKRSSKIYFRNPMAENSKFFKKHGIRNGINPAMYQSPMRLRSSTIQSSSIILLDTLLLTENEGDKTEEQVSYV
T2 sequence (P31652 whole entry): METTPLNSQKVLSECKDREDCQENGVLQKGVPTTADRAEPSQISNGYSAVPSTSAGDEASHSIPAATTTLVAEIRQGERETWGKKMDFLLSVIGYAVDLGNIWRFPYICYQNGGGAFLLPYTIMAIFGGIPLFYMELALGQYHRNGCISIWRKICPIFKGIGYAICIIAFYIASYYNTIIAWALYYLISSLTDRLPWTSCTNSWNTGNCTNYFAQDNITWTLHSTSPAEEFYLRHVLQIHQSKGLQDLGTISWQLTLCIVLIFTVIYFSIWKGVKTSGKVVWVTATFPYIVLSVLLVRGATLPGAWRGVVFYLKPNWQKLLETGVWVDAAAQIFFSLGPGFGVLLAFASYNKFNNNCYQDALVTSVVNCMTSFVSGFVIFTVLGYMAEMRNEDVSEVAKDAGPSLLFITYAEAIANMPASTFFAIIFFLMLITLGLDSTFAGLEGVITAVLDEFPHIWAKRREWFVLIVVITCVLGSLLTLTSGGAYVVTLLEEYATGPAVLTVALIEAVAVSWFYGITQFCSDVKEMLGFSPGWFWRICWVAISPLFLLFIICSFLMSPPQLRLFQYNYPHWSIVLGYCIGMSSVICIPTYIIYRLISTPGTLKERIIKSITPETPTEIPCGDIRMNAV
T1 sequence (P23977 whole entry): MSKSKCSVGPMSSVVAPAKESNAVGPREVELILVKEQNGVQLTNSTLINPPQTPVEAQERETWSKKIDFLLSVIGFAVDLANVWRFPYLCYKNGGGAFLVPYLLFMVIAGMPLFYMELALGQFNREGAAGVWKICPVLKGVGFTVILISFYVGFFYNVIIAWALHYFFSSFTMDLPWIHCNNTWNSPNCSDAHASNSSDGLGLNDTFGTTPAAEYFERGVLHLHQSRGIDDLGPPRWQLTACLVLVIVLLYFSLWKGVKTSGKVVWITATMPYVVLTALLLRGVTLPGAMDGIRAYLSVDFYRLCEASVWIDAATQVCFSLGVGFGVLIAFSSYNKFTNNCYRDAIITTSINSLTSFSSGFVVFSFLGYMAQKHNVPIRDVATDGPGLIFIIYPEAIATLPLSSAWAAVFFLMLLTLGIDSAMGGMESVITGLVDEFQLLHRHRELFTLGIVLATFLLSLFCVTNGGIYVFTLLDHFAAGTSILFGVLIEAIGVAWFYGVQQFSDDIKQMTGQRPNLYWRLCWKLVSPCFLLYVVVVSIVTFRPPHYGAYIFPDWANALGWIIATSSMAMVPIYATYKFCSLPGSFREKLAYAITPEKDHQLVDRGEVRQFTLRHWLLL
T3 sequence (P28223 whole entry): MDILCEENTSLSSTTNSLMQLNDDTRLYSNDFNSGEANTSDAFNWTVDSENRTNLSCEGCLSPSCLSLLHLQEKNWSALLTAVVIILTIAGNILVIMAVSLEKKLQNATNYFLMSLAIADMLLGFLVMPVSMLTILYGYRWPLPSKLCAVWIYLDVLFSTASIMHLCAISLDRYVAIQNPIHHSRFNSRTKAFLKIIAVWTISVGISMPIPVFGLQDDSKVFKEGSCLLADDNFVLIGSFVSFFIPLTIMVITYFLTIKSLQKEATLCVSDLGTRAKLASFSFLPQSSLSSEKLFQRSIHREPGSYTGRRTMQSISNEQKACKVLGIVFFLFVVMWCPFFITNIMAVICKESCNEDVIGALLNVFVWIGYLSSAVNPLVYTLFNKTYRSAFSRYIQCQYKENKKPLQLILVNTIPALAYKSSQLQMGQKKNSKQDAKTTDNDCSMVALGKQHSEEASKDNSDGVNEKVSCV

Row | Structure (SMILES) | melting point | EC50 [1] | EC50 [2] | EC50 [3] | EC50 (5-HT2B) | EC50 (5-HT2C; calcium mobilization, agonist) | further results
1 | C[C@@H](N)CC#Cc1ccccc1 (as salt: hydrochloride) [R-4, (1R)-1-Methyl-4-phenyl-but-3-ynylamine] | 143 to 144 °C | – | – | – | – | – | –
2 | C[C@@H](N)C/C=C/c1ccccc1 (as salt: hydrochloride) [R-6, (1R,3E)-1-Methyl-4-phenyl-but-3-enylamine] | 172 to 174 °C | – | – | – | – | – | –
3 | C[C@@H](N)C/C=C\c1ccccc1 (as salt: hydrochloride) [R-8, (1R,3Z)-1-Methyl-4-phenyl-but-3-enylamine] | 83 to 84 °C | – | – | – | – | – | –
4 | C[C@H](N)CC#Cc1ccccc1 (as salt: hydrochloride) [S-4, (1S)-1-Methyl-4-phenyl-but-3-ynylamine] | 141 to 142 °C | – | – | – | – | – | –
5 | C[C@H](N)C/C=C/c1ccccc1 (as salt: hydrochloride) [S-6, (1S,3E)-1-Methyl-4-phenyl-but-3-enylamine] | 172 to 173 °C | – | – | – | – | – | –
6 | C[C@H](N)C/C=C\c1ccccc1 (as salt: hydrochloride) [S-8, (1S,3Z)-1-Methyl-4-phenyl-but-3-enylamine] | 83 to 84 °C | – | – | – | – | – | –
7 | CC(N)/C=C/c1ccccc1 (stereo not drawn) (as salt: hydrochloride) [compound 10, (2E)-1-Methyl-3-phenyl-prop-2-enylamine] | 151 to 152 °C | – | – | – | – | – | –
8 | CC(N)/C=C\c1ccccc1 (stereo not drawn) (as salt: hydrochloride) [compound 11, (2Z)-1-Methyl-3-phenyl-prop-2-enylamine] | 149 to 151 °C | – | – | – | – | – | –
9 | CC(N)CC#Cc1ccccc1 (racemic) (as salt: hydrochloride) [compound 4, 1-Methyl-4-phenyl-but-3-ynylamine] | 131 to 132 °C | – | – | – | – | – | –
10 | CC(N)C/C=C/c1ccccc1 (racemic) (as salt: hydrochloride) [compound 6, (3E)-1-Methyl-4-phenyl-but-3-enylamine] | 147 to 148 °C | – | – | – | – | – | –
11 | CC(N)C/C=C\c1ccccc1 (racemic) (as salt: hydrochloride) [compound 8, (3Z)-1-Methyl-4-phenyl-but-3-enylamine] | 115 to 117 °C | – | – | – | – | – | –
12 | CC(N)CC#Cc1ccccc1 (racemic) [compound 4, 1-Methyl-4-phenyl-but-3-ynylamine] | – | 997 nM | 384 ± 110 nM | 2980 nM | > 10000 nM | > 10000 nM | potency at releasing DA compared to NE [1]: 3 fold; selectivity for releasing 5-HT compared to DA, given as fold more potent at the DAT [1]: 2.6 fold; EC50 (human 5-HT2A receptor; [4]): > 10000 nM; EC50 (human 5-HT2A receptor; calcium mobilization, read-out: 5-HT2A EC50): > 10000 nM
13 | CC(N)C/C=C/c1ccccc1 (racemic) [compound 6, (3E)-1-Methyl-4-phenyl-but-3-enylamine] | – | 272 ± 44 nM | 54 ± 8 nM | 239 ± 59 nM | > 10000 nM | > 10000 nM | fold reduction in potency at 5-HT2A compared to 8 (human 5-HT2A receptor): 3 fold; Emax (human 5-HT2A receptor; HEK293, calcium mobilization): ~80%; EC50 (human 5-HT2A receptor; [4]): 5620 ± 1700 nM
14 | CC(N)C/C=C\c1ccccc1 (racemic) [compound 8, (3Z)-1-Methyl-4-phenyl-but-3-enylamine] | – | 900 ± 100 nM | 646 nM | 621 ± 190 nM | > 10000 nM | > 10000 nM | potency for releasing 5-HT relative to DA (SERT/DAT selectivity) [2]: 1.4 fold; Emax (human 5-HT2A receptor; HEK293, calcium mobilization): 90%; EC50 (human 5-HT2A receptor; [4]): 1860 nM; Emax at 10 µM (5-HT2C; at 10 μM, read-out: 5-HT2C activity relative to the control 5-HT EMAX): < 50%
15 | C[C@@H](N)CC#Cc1ccccc1 [R-4, (1R)-1-Methyl-4-phenyl-but-3-ynylamine] | – | 660 ± 190 nM | 288 nM | 496 nM | > 10000 nM | > 10000 nM | selectivity for releasing 5-HT compared to DA, given as fold more potent at the DAT [1]: 2.3 fold
16 | C[C@@H](N)C/C=C/c1ccccc1 [R-6, (1R,3E)-1-Methyl-4-phenyl-but-3-enylamine] | – | 540 nM | 109 ± 29 nM | 279 ± 24 nM | > 10000 nM | > 10000 nM | –
17 | C[C@H](N)CC#Cc1ccccc1 [S-4, (1S)-1-Methyl-4-phenyl-but-3-ynylamine] | – | 443 nM | 756 ± 79 nM | 784 ± 190 nM | > 10000 nM | > 10000 nM | potency for releasing 5-HT relative to DA (SERT/DAT selectivity) [2]: essentially equipotent; fold reduction in potency at 5-HT2A compared to 8 (human 5-HT2A receptor): 2.7 fold; Emax (human 5-HT2A receptor; HEK293, calcium mobilization): ~80%; EC50 (human 5-HT2A receptor; [4]): 4950 ± 1400 nM
18 | C[C@H](N)C/C=C/c1ccccc1 [S-6, (1S,3E)-1-Methyl-4-phenyl-but-3-enylamine] | – | 206 nM | 40 nM | 138 nM | > 10000 nM | > 10000 nM | potency at releasing DA compared to NE [1]: almost equal; potency for 5-HT release compared to NE release [2]: 3.5 fold; potency for releasing 5-HT relative to DA (SERT/DAT selectivity) [2]: 5 fold; 5-HT2A EC50, (nM ± SEM) (human 5-HT2A receptor; calcium mobilization, agonist, HEK293): inactive; EC50 (human 5-HT2A receptor; [4]): > 10000 nM; 5-HT2B EC50, (nM ± SEM) (5-HT2B): inactive; 5-HT2C EC50, (nM ± SEM) (5-HT2C; calcium mobilization, agonist): inactive
